Experimental data: patent publication US6767725B2, “Acetyl amino acid racemase from amycolatopsis orientalis for racemizing carbamoyl amino acids” (Degussa AG, priority 2000, dated 2004)

What was measured:
[1] = tested on: N-acetyl amino acid racemase from Amycolatopsis orientalis subsp. lurida; assay: Detection of racemase activity of recombinant AAR (polarimetric racemization assay); assay type: biochemical; settings: substrate 25 mM, Tris/HCl 50 mM pH 8.0, cobalt chloride 6 mM, approx 150 μg purified protein, 30° C., 3 to 12 hours, polarimeter λ=365 nm
Description: The substrate spectrum of the N-acetyl amino acid racemase from Amycolatopsis orientalis subsp. lurida was tested using the enzyme assay described below. The assay was composed of the following: [table] Enantiomerically pure amino acid derivatives were used in the test and the formation of the corresponding racemate was monitored in the polarimeter (Perkin-Elmer 241). Incubation took place at 30° C. (heated cell) for 3 to 12 hours. The measurements were taken at a wave length of λ=365 nm.

[2] = target: T1, N-acyl amino acid racemase from A. TS-1-60 (Amycolatopsis sp, UniProt Q44244); assay: Racemase activity of the N-acyl amino acid racemase from A. TS-1-60; assay type: biochemical, Amycolatopis sp. TS-1-60; settings: N-carbamoyl-D-Met as substrate
T1 sequence (Q44244 1-368): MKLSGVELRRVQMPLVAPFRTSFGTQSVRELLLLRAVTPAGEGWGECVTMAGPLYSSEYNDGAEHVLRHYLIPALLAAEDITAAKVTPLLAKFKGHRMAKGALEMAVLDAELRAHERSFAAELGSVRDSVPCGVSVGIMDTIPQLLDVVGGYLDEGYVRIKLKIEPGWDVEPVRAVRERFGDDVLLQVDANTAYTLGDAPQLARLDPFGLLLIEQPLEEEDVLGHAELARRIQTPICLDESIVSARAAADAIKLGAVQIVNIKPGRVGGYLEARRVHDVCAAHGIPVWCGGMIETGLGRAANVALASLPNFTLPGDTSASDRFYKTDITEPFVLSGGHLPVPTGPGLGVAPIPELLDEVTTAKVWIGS
Source text: The N-acyl amino acid racemase from A. TS-1-60 with N-carbamoyl-D-Met as substrate has an activity of 100 mU/mg. This specific activity is thus 35% lower than that of the racemase from A. orientalis subsp. lurida.

| Molecule | Specific activity of the AAR [1] [mU/mg] | activity (specific activity) of the racemase from A. TS-1-60 [2] [mU/mg] | specific activity lower than that of the racemase from A. orientalis subsp. lurida ([2]; TS-1-60 racemase versus A. orientalis subsp. lurida racemase) [%] |
| --- | --- | --- | --- |
| CC(C)[C@H](NC(N)=O)C(=O)O [N-Carbamoyl-L-Val] | 20 |  |  |
| N-Carbamoyl-L-Abs | 15 |  |  |
| NC(=O)N[C@@H](Cc1ccc(O)cc1)C(=O)O [N-Carbamoyl-L-Tyr] | 62 |  |  |
| NC(=O)N[C@H](Cc1ccccc1)C(=O)O [N-Carbamoyl-D-Phe] | 20 |  |  |
| CC(C)C[C@H](NC(N)=O)C(=O)O [N-Carbamoyl-L-Leu] | 20 |  |  |
| CSCC[C@@H](NC(N)=O)C(=O)O [N-Carbamoyl-D-Met] | 155 | 100 | 35 |
| CSCC[C@H](NC(N)=O)C(=O)O [N-Carbamoyl-L-Met] | 118 |  |  |
